# According to PMC10458458, “Characterization of Anticancer Effects of the Analogs of DJ4, a Novel Selective Inhibitor of ROCK and MRCK Kinases” (Pharmaceuticals, 2023):
# Entries after “also recorded” stand apart in the source; their conditions may differ.
# Legend:
# [1] = tested on: A549 lung cancer cells; experiment: Colony forming assay; type: cell-based, human; conditions: then 14 days treatment-free, relative to control
# Method: Figure 2 DJ4 reduces cell survival and inhibits colony forming ability of the cancer cells. (A) Different NSCLC cells were plated in a 96-well plate to confluence and then treated for 72 h. Cytotoxicity was assessed by MTT assay. The error bars indicate SEM of triplicates. (B) To assess cytotoxicity of DJ4 in breast cancer cells, MDA-MB-231 cells were treated for 24 h with indicated concentrations of DJ4. Percentage of live cells were counted using Muse^TM Live/Dead reagent and analyzed by Muse^TM cell analyzer. Error bars indicate SEM. n = 2. * p < 0.05. (C) DJ4 inhibits colony forming ability of A549 cells treated for 48 h. After a 48-h treatment, cells were seeded with number of cells mentioned in the table and were allowed to grow and form colonies. At the end of 14 days, colonies were stained and counted. Percent surviving fraction was calculated. The figure is the representative of the replicates. (D) The data are summarized in the table and represent the average of three replicates. TEXT PRINTED IN THE PICTURE: (D) DJ4: Surviving Fraction after 14 days (%): 2.3 (Concentration: 2.5μM; Number of cells plated: 2000; SEM: 0.1); Surviving Fraction after 14 days (%): 0.4 (Concentration: 5μM; Number of cells plated: 4000; SEM: 0.0); Surviving Fraction after 14 days (%): 0.1 (Concentration: 10μM; Number of cells plated: 8000; SEM: 0.0)
# To further determine the effects of DJ4 on cell proliferation, we performed colony forming assays in A549 lung cancer cells. Forty-eight hours after the treatment with 2.5, 5.0, and 10 µM DJ4, individual cells were re-plated at low seeding density and colony formation was monitored for 14 days. The percent surviving fraction of cells relative to control cells that formed the distinct colonies were 2.3%, 0.4%, and 0.1% at 2.5, 5.0, and 10 µM, respectively, after 14 days of growth in a treatment-free culture medium (Figure 2C,D).
# [2] = Solubility in culture media at 10 µM (observation); type: physicochemical; conditions: NCI-60 screening
# Method: To study the effectiveness of these analogs in a vast range of cancer cell lines, the compounds were subjected to cell viability screening in the NCI-60 human cancer cell line panel representing nine different cancer types (Supplementary Figure S2). Testing of the compounds in such a wide range of cancer types helps identify sensitivity and selectivity of specific types of cancers to the novel compounds. The initial screening was performed at a single concentration of 10 µM. At 10 µM, both DJ110 and DJ-Morpholine were insoluble and were, therefore, ineffective. The parental DJ4 compound was effective in a wide spectrum of cancer cell lines, with breast cancer, NSCLC, and central nervous system cancers displaying the most consistent response. The ovarian cancer cell line NCI/ADR-RES and HCC-2998 colon cancer cells were relatively resistant to DJ4 (IC50 > 10 µM) (Supplementary Figure S2). […] NCI/ADR-RES (ovarian), RPMI-8226, and K-562 (leukemia) cell lines were relatively resistant (29%, 29%, 26% increase in cell number) to DJE4. […] Two CNS cell lines, SNB-75 and SF-539, were the most sensitive in which DJ-Allyl induced the cell death (60% reduction in cell number). NCI/ADR-RES (ovarian), MALME-3M (melanoma), HCC-2998 (colon), RPMI-8226, and K-562 (leukemia) were relatively resistant (~40% increase in cell number) to DJ-Allyl. […]
# [3] = tested on: NCI-60 human cancer cell line panel; experiment: NCI-60 single concentration screen, whole panel; type: cell-based; conditions: single concentration 10 µM
# Source text: The selected active compounds were screened at NCI, as a part of In Vitro Cell Line Screening Project (IVCLSP), for their effect on cell growth in 60 different cancer cell lines. The 60 human cancer cell line panel included leukemia, melanoma, non-small cell lung cancer, colon, central nervous system (CNS), ovarian, renal, prostate, and breast cancer cell lines. The detailed procedure and applications of NCI-60 cell line screening can be found at https://dtp.cancer.gov/discovery_development/nci-60/default.htm (accessed on 9 January 2023). Briefly, cells were plated in 96-well plates and incubated for 24 h. One set of cells was fixed with trichloroacetic acid at time 0 h (Tz), and SRB (sulphorhodamine B) assays were performed to quantify the cells. The remaining set of cells were treated with 10 µM single concentration of each compound and incubated for 48 h (Te) after which the cells were fixed, and the SRB assays were performed. Data are presented as percent growth relative to the control as 100% according to the following calculations:
# When Te >/= Tz. Growth(%)=Te−Tz/C−Tz∗100 and when Te < Tz. (1) Growth(%)=Te−Tz/Tz∗100
# Values between 0–100 indicate cell growth, zero (0) indicates no cell growth, values < 0 indicate cell death.
Compound,"Surviving Fraction after 14 days ([1]; A549, 2.5 µM for 48 h) [%]","Surviving Fraction after 14 days ([1]; A549, 5.0 µM for 48 h) [%]","Surviving Fraction after 14 days ([1]; A549, 10 µM for 48 h) [%]",solubility at 10 µM in culture media [2],effectiveness in NCI-60 screening [3]
O=C1N/C(=N\CCc2ccccc2)S/C1=C/c1c[nH]c2ncccc12 [DJ4],2.3,0.4,0.1,,
O=C1N/C(=N\Cc2ccccc2)S/C1=C/c1c[nH]c2ncccc12 [DJ110],,,,insoluble; also recorded: sparingly soluble,ineffective
O=C1N/C(=N\CCN2CCOCC2)S/C1=C/c1c[nH]c2ncccc12 [DJ-Morpholine],,,,insoluble; also recorded: sparingly soluble,ineffective
